From patent US5010105A, “Antihypercholesterolemic compounds” (Merck & Co., Inc., priority 1990, dated 1991) come the findings set out here.

The experiment relates to HMG-CoA reductase. Nature of the experiment: intrinsic HMG-CoA reductase inhibition, in vitro protocol of J. Med. Chem., 28, p. 347-358 (1985). The format is biochemical. Particulars: IC50 of test compound compared with compactin (mevastatin) determined simultaneously; compactin assigned a value of 100. How it is done: The intrinsic HMG-CoA reductase inhibition activity of the claimed compounds is measured in the in vitro protocol published in J. Med. Chem., 28, p. 347-358 (1985).
For estimation of relative inhibitory potencies, compactin (i.e., mevastatin) was assigned a value of 100 and the IC50 value of the test compound was compared with that of compactin determined simultaneously in the published in vitro protocol.

`CCC(C)(C)C(=O)O[C@H]1C[C@@H](C)C[C@]23C[C@H]2C(=O)[C@H](C)[C@H](CC[C@@H]2C[C@@H](O)CC(=O)O2)[C@@H]13` [Example 1, 6(R)-[2-[2(R),6(S)-dimethyl-8(S)-(2,2-dimethylbutyryloxy)-α-4,4a-methyleno-1,2,3,4,4a,5,6,7,8,8a(R)-decahydro-3-oxo-naphthyl-1(S)]ethyl]-4(R)-hydroxy-3,4,5,6-tetrahydro-2H-pyran-2-one] displayed a relative potency of 186.
